Data from publication PMC5200956 (ChemMedChem, 2016).
Where two headings read alike, the source gives them in different places.

How the values were obtained:
[1] = tested on: T. gondii (tachyzoites); experiment: T. gondii tachyzoites growth assay; format: cell-based, Toxoplasma gondii; details: means ± SD, n = 3
[2] = tested on: T. cruzi (amastigotes); experiment: T. cruzi amastigote growth assay; format: cell-based, Trypanosoma cruzi; details: for EC50: read-out: T. cruzi growth EC50, intracellular amastigotes, means ± SD, n = 3; for antiparasitic activity against T. cruzi (in words): amastigotes
[3] = Cytotoxicity for Vero cells; format: cell-based; details: African green monkey
[4] = molecular target: TgFPPS; experiment: TgFPPS enzyme inhibition; format: biochemical, Toxoplasma gondii; details: read-out: TgFPPS IC50; means ± SD, n = 3
[5] = molecular target: T1, HhFPPS (Homo sapiens, UniProt P14324); experiment: HhFPPS enzyme inhibition; format: biochemical; details: read-out: HhFPPS IC50; means ± SD, n = 3
T1 sequence (P14324 67-419 limits assumed): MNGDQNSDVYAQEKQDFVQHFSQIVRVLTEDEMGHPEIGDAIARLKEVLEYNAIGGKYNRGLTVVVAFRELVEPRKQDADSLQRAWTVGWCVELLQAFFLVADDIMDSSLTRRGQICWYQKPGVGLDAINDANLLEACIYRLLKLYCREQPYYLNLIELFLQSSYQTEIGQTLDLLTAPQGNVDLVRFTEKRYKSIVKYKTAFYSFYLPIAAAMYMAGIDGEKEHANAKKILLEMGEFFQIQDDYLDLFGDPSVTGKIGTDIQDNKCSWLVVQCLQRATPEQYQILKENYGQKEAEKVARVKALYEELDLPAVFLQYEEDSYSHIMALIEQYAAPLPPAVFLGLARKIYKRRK

[6] = tested on: Vero cells; experiment: Cytotoxicity for Vero cells; format: cell-based; details: read-out: Cytotoxicity EC50
[7] = molecular target: T2, TcFPPS (Trypanosoma cruzi, UniProt Q8WS26); experiment: TcFPPS enzyme inhibition; format: biochemical; details: read-out: TcFPPS IC50; means ± SD, n = 3
T2 sequence (Q8WS26 1-425): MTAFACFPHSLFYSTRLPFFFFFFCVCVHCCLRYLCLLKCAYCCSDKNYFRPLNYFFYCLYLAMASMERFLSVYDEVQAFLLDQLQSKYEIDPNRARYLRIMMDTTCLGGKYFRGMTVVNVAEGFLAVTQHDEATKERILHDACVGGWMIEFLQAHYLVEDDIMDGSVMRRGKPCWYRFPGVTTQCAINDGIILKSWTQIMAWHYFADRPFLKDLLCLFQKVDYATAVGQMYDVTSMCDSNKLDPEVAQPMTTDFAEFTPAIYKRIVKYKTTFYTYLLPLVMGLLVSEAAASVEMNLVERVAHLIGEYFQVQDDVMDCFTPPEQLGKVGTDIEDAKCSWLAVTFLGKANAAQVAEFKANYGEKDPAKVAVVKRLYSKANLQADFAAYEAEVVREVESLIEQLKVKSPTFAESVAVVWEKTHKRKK

[8] = tested on: T. cruzi squalene synthase (TcSQS); details: cited from earlier work; for IC50: read-out: TcSQS IC50, enzymatic activity of TcSQS
[9] = tested on: T. gondii (tachyzoites); details: read-out: T. gondii growth EC50; cited from earlier work
[10] = tested on: T. cruzi (amastigotes); details: read-out: T. cruzi growth EC50; cited from earlier work
[11] = Toxoplasma gondii, read-out: T. gondii growth EC50, tachyzoites
[12] = read-out: T. gondii growth EC50, tachyzoites

Row | Compound | EC50 [1, 11] | EC50 [1, 12] | EC50 [2] | EC50 [3] | antiparasitic activity against T. cruzi (in words) [2] | IC50 [4] | IC50 [5] | also measured
1 | N#CSCCOc1cccc(Oc2ccccc2F)c1 [Compound 20, 3-(2-Fluorophenoxy)phenoxyethyl Thiocyanate] | 3.1 µM | 3.12 ± 0.37 µM | 7.01 ± 0.51 µM | > 60 µM | – | – | – | –
2 | N#CSCCOc1cccc(Oc2cccc(F)c2)c1 [Compound 21, 3-(3-Fluorophenoxy)phenoxyethyl Thiocyanate] | 1.6 µM | 1.63 ± 0.36 µM | 5.38 ± 0.82 µM | > 50 µM | – | – | – | –
3 | N#CSCCOc1cccc(Oc2ccc(F)cc2)c1 [Compound 22, 3-(4-Fluorophenoxy)phenoxyethyl Thiocyanate] | 4.9 µM | 4.92 ± 1.94 µM | 5.69 ± 0.47 µM | > 55 µM | – | – | – | –
4 | N#CSCCOc1ccc(Oc2ccccc2F)cc1 [Compound 27, 4-(2-Fluorophenoxy)phenoxyethyl Thiocyanate] | 4.5 µM | 4.54 ± 0.57 µM | – | > 55 µM | devoid of antiparasitic activity | – | – | –
5 | N#CSCCOc1ccc(Oc2ccncc2)cc1 [Compound 31, 4-(4-pyridyl)oxyphenoxyethyl Thiocyanate] | 7.9 µM | – | – | > 200 µM | free of antiparasitic activity | – | – | –
6 | O=P(O)(O)C(CNCCOc1ccc(Oc2ccccc2)cc1)P(=O)(O)O [Compound 43, 1-[(4-Phenoxyphenoxyethylamino)ethyl]-1,1-bisphosphonic Acid] | – | 5.9 ± 0.07 µM | > 10 µM | – | – | 0.094 ± 0.02 µM | > 10 µM | EC50 [6]: > 100 µM
7 | O=P(O)(O)C(CSCCOc1ccc(Oc2ccccc2)cc1)P(=O)(O)O [Compound 48] | – | > 10 µM | > 20 µM | – | – | 0.362 ± 0.002 µM | > 15 µM | IC50 [7]: 0.8 ± 0.12 µM; EC50 [6]: > 200 µM
8 | O=P(O)(O)C(CNCCOc1cccc(Oc2ccccc2)c1)P(=O)(O)O [Compound 53, 1-[(3-Phenoxyphenoxyethylamino)ethyl]-1,1-bisphosphonic Acid] | – | 2.4 ± 0.7 µM | > 10 µM | – | devoid of activity | 0.04 ± 0.002 µM | > 10 µM | IC50 [7]: > 10 µM; EC50 [6]: > 50 µM
9 | O=P(O)(O)C(CSCCOc1cccc(Oc2ccccc2)c1)P(=O)(O)O [Compound 58, 2-[3-(Phenoxy)phenoxyethylthio]ethyl-1,1-bisphosphonic Acid] | – | 0.67 ± 0.23 µM | > 10 µM | – | devoid of activity | 0.076 ± 0.019 µM | > 10 µM | EC50 ([1]; read-out: T. gondii growth EC50, tachyzoites, listed as 2-[3-(phenoxy)phenoxyethylthio]ethyl-1,1-bisphosphonate): 0.7 µM; EC50 [6]: > 100 µM
10 | O=P(O)(O)C(CNCCOc1ccccc1)P(=O)(O)O [Compound 63, 1-[(Phenoxyethylamino)ethyl]-1,1-bisphosphonic Acid] | – | > 10 µM | > 10 µM | – | – | 0.18 ± 0.015 µM | > 10 µM | IC50 [7]: 0.32 ± 0.04 µM
11 | N#CSCCOc1ccc2ccccc2c1 [Compound 68, 2-(Naphthalen-2-yloxy)ethyl Thiocyanate] | 3.6 µM | – | – | – | vanishing inhibitory action | – | – | –
12 | N#CSCCOc1cccc2ccccc12 [Compound 73, 2-(Naphthalen-1-yloxy)ethyl Thiocyanate] | 3.1 µM | – | – | 7.5 µM | vanishing inhibitory action | – | – | –
13 | CO[C@@H]1CN(c2ccc(C#C[C@]3(O)CN4CCC3CC4)c(Cc3ccccc3)n2)C[C@@H]1O [Compound E5700] | – | – | – | – | – | – | – | type of inhibition of TcSQS [8]: mixed-type; IC50 [8]: 0.00084 µM
14 | COCCCOc1ccc(C#C[C@@]2(O)CN3CCC2CC3)c(Cc2ccccc2)n1 [ER-119884] | – | – | – | – | – | – | – | type of inhibition of TcSQS [8]: non-competitive; IC50 [8]: 0.0035 µM
15 | N#CSCCOc1ccc(Oc2ccccc2)cc1 [WC-9, 4-Phenoxyphenoxyethyl thiocyanate] | – | – | – | – | – | – | – | EC50 [9]: 4.8 ± 0.41 µM; EC50 [10]: 5 ± 1.1 µM; type of inhibition of TcSQS [8]: non-competitive
